This note sets out measurements from patent publication US12454514B2, “Quinazolinone compounds” (Cerepeut, Inc., priority 2019, dated 2025).

What is called pIC50 is −log10 of the IC50, conventionally taken in molar units. Low readings indicate a high IC50, high ones a low IC50.

pIC50: −log10 of the molar value.

The test system of this experiment is Molt-4 cells. Briefly: CellTiter-Glo Luminescent Cell Viability Assay (growth inhibition, 72 hour incubation). The note with it: Homo sapiens, 72 hours treatment, CellTiter Glo luminescence. Format: cell-based. From the text:
CellTiter-Glo Luminescent Cell Viability Assay Kit was obtained from Promega. RPMI 1640 was obtained from Invitrogen. Fetal Bovine Serum (FBS) was obtained from Corning. L-glutamine was obtained from Invitrogen. 100× Penicillin-Streptomycin was obtained from HyClone. 0.05% Trypsin-EDTA (T-E) was obtained from Invitrogen. DPBS was obtained from Corning. DMSO was obtained from Sigma. Black 384 well plates were obtained from Greiner. 96-well V bottom plates were obtained from Axygen. For cell seeding on Day “−1”, the density of Molt-4 cells was adjusted according to supplier-recommended information. 50 μL cells were seeded in four 384-well-plates, and 50 μL DPBS was added to the edge wells. On Day 0, test compounds were dissolved in DMSO and stored in a nitrogen cabinet. The stock concentration of the test compounds was 120 mM. The stock concentration of the reference compounds was 10 mM. Test compounds (125 nL in DMSO) were added to the wells and serially diluted by three fold, providing 10 doses in each series with a maximum concentration of 300 μM. Equal volumes of DMSO without test compound were transferred to control rows in the well plate. Using this procedure, the DMSO concentration across the well plate was 0.25% (v/v). On Day 3 (after the cells were treated with the compounds for 72 hours), the plates were equilibrated at room temperature for approximately 30 minutes. 25 μL of CellTiter Glo reagent was added to each well, and the luminescence in each well was measured after 10 min using an ENVISION fluorescence plate reader (PerkinElmer). The calculation formula used for data analysis was: Inhibition %=(Max−Sample Value)/Max*100. Curves were fitted by Prism with a Sigmoidal dose-response (variable slope) model and generated by 4 Parameter Logistic Model or Sigmoidal Dose-Response Model, Y=Bottom+(Top−Bottom)/(1+10^((log EC50−x)*HillSlope)). To evaluate the anti-tumor activity of the compounds, the growth inhibitory effect of the compound was measured in various human cancer cell lines after 72 hour incubation. In the assays, the viability of the Molt-4 cells was greater than 85% during the initial cell plating. All the cell plates met the criteria that the coefficient of variation (CV)<10%. Observed IC50 values are summarized below, along with the observed IC50 value for reference compound 6-chloro-3-(2,4-dichloro-5-methoxyphenyl)-2-mercapto-7-methoxyquinazolin-4(3H)-one.
Take `COc1cc2nc(S)n(-c3cc(OC)c(OC)cc3Cl)c(=O)c2cc1Cl` [Compound 1, 6-Chloro-3-(2-chloro-4,5-dimethoxyphenyl)-2-mercapto-7-methoxyquinazolin-4(3H)-one]: the pIC50 was less than 4.52.

In turn, `COc1cc(-n2c(S)nc3cc(OC)c(Cl)cc3c2=O)c(Cl)cc1F` [Compound 2, 6-Chloro-3-(2-chloro-4-fluoro-5-methoxyphenyl)-2-mercapto-7-methoxyquinazolin-4(3H)-one] gave a pIC50 of 4.52 to 5.52.

For the compound `COc1cc(-n2c(S)nc3cc(OC)c(Cl)cc3c2=O)c(OC)cc1Cl` [Compound 3, 6-Chloro-3-(4-chloro-2,5-dimethoxyphenyl)-2-mercapto-7-methoxyquinazolin-4(3H)-one], the pIC50 is 4.52 to 5.52.

`COc1cc2nc(S)n(-c3cc(F)c(Cl)cc3Cl)c(=O)c2cc1Cl` [Compound 4, 6-Chloro-3-(2,4-dichloro-5-fluorophenyl)-2-mercapto-7-methoxyquinazolin-4(3H)-one] gave a pIC50 of 4.52 to 5.52.

`COc1ccc2c(=O)n(-c3cc(OC)c(Cl)cc3Cl)c(S)nc2c1` [Compound 5, 3-(2,4-dichloro-5-methoxyphenyl)-2-mercapto-7-methoxyquinazolin-4(3H)-one] had a pIC50 of 4.52 to 5.52.

In turn, `COc1cc(-n2c(S)nc3cc(OC)c(OC)cc3c2=O)c(Cl)cc1Cl` [Compound 6, 3-(2,4-dichloro-5-methoxyphenyl)-2-mercapto-6,7-dimethoxyquinazolin-4(3H)-one] gave a pIC50 greater than 5.52.

`COc1cc2nc(S)n(-c3cc(OC)c(Cl)cc3Cl)c(=O)c2cc1O` [Compound 7, 3-(2,4-Dichloro-5-methoxyphenyl)-6-hydroxy-2-mercapto-7-methoxyquinazolin-4(3H)-one]: the pIC50 was greater than 5.52.

For the compound `COc1cc2nc(S)n(-c3cc(OC)c(Cl)cc3Cl)c(=O)c2cc1N` [Compound 8, 6-Amino-3-(2,4-dichloro-5-methoxyphenyl)-2-mercapto-7-methoxyquinazolin-4(3H)-one], the pIC50 was greater than 5.52.

On to `COc1cc(-n2c(S)nc3cc(OC)c(C4CC4)cc3c2=O)c(Cl)cc1Cl` [Compound 9, 6-Cyclopropyl-3-(2,4-dichloro-5-methoxyphenyl)-2-mercapto-7-methoxyquinazolin-4(3H)-one], for which the pIC50 is greater than 5.52.

`Cc1cc(-n2c(S)nc3ccc(Cl)cc3c2=O)c(Cl)cc1Cl` [Compound 10, 6-chloro-3-(2,4-Dichloro-5-methylphenyl)-2-mercaptoquinazolin-4(3H)-one] showed a pIC50 of 4.52 to 5.52.

Consider `COc1cc(-n2c(S)nc3cc(C4CC4)c(Cl)cc3c2=O)c(Cl)cc1Cl` [Compound 11, 6-Chloro-7-cyclopropyl-3-(2,4-dichloro-5-methoxyphenyl)-2-mercaptoquinazolin-4(3H)-one], for which the pIC50 was 4.52 to 5.52.

As to `C=Cc1c(OC)c(Cl)cc2c(=O)n(-c3cc(OC)c(Cl)cc3Cl)c(S)nc12` [Compound 12, 6-Chloro-3-(2,4-dichloro-5-methoxyphenyl)-2-mercapto-7-methoxy-8-vinylquinazolin-4(3H)-one], the pIC50 was less than 4.52.

`COc1cc(-n2c(S)nc3c(C4CC4)c(OC)c(Cl)cc3c2=O)c(Cl)cc1Cl` [Compound 13, 6-Chloro-8-cyclopropyl-3-(2,4-dichloro-5-methoxyphenyl)-2-mercapto-7-methoxyquinazolin-4(3H)-one] showed a negative-log IC50 (pIC50) of 4.52 to 5.52.

For `COc1cc(-n2c(S)nc3cc(OC)c(Cl)cc3c2=O)c(Cl)cc1Cl` [Ref. 1, 6-chloro-3-(2,4-dichloro-5-methoxyphenyl)-2-mercapto-7-methoxyquinazolin-4(3H)-one, reference compound], the pIC50 is 4.52 to 5.52.
